Test results taken from patent publication US11833137B2, “Substituted chromenones, IRE1 inhibitors, and methods of using same” (The Wistar Institute, priority 2018, dated 2023).

Test system: CD11b+/Ly6G+ granulocytic MDSCs
Assay: MDSC-mediated T cell suppression assay
Type: in vivo, mouse
Settings: OT-I splenocytes, OVA peptide
Experimental: FIGS. 24A-24J illustrate the finding that targeting XBP-1s in CLL cells of MD4^+/−/Eμ-TCL1^+/+ mice leads to reduced production of sIgM, and decreased numbers and function of granulocytic MDSCs. […]. Gated CD11c−/CD11b+ populations were analyzed for Ly6C^intermediate/Ly6G+ granulocytic MDSCs and Ly6C+/Ly6G− monocytic MDSCs. (FIG. 24C) Percentages of CD11b+ myeloid cells in the blood of MD4^+/−/Eμ-TCL1^+/+ and XBP-1^KO/MD4^+/−/Eμ-TCL1^+/+ mice were plotted as mean±SEM. (FIG. 24D) Percentages of CD11b+/Ly6C^intermediate/Ly6G+ granulocytic MDSCs in the blood of MD4^+/−/Eμ-TCL1^+/+ and XBP-1^KO/MD4^+/−/Eμ-TCL1^+/+ mice were plotted as mean±SEM. […] Gated CD11b+/Ly6C^intermediate/Ly6G+ granulocytic MDSCs were analyzed for the expression of Arg-1. (FIG. 24F) Mean fluorescence intensity (MFI) of Arg-1 in gated CD11b+/Ly6C^intermediate/Ly6G+ granulocytic MDSCs from spleens of 5 MD4^+/−/Eμ-TCL1^+/+ and 5 XBP-1^KO/MD4^+/−/Eμ-TCL1^+/+ mice was plotted as mean±SEM. […] The ^3H-thymidine uptake was measured, and the percentages of proliferation were calculated by comparing to the positive control and plotted as mean±SEM. […] The percentage of CLL cells in PBMCs for each mouse was determined by flow cytofluorometry on day 6 and day 13, and compared with the CLL burden data of the mouse on day 0 (100%). […]

For `O=c1oc2c(C3OCCCO3)c(O)ccc2c2c1CNCC2` [Compound 4, 7-(1,3-dioxan-2-yl)-8-hydroxy-1,2,3,4-tetrahydro-5H-chromeno[3,4-c]pyridin-5-one], the “suppression of T cell proliferation by MDSCs from injected mice” value was “lost their immunosuppressive function”.
